SMILES strings stand for the structures.

One may read the MIC as the lowest concentration that inhibits growth of the organism.

In this assay the test system is Candida albicans FP-633. The format is cell-based. To be noted: FP-633, 24 h, pH 7.3. The method, then:
In vitro antimicrobial activity of the object compound of Examples 1, 2, 3 and 4 disclosed later was determined by MICS in mouse serum as described below. The MICS in mouse serum were determined by the microdilution method using ICR mouse serum buffered with 20 mM HEPES buffer (pH 7.3) as a test medium. Inoculum suspension of 10^6 cells/ml were prepared by a hemocytometric procedure and diluted to obtain an inoculum size of approximately 1.0×10^3 cells/ml. Microplates were incubated at 37° C. for 24 hours in 5% CO2. The MICS were defined as the lowest concentrations at which no visible growth was observed.
Compound `COc1cc(C[C@@H](O)[C@@H]2NC(=O)[C@@H]3C[C@@H](O)CN3C(=O)[C@H]([C@@H](C)O)NC(=O)[C@@H](NCc3ccc(-c4nnc(-c5ccc(N6CCN([C@H]7CC[C@@H](C)CC7)CC6)cc5)s4)cc3)C[C@@H](O)CNC(=O)[C@@H]3[C@@H](O)[C@@H](C)CN3C(=O)[C@H]([C@H](O)CCN)NC2=O)ccc1O` [Example 1] displayed a minimum inhibitory concentration (MIC) below 0.15 µg/mL. In the case of `COc1cc(C[C@@H](O)[C@@H]2NC(=O)[C@@H]3C[C@@H](O)CN3C(=O)[C@H]([C@@H](C)O)NC(=O)[C@@H](NCc3ccc(-c4ccc(N5CCN([C@H]6CC[C@](OC)(C7CCCCC7)CC6)CC5)cc4)cc3)C[C@@H](O)CNC(=O)[C@@H]3[C@@H](O)[C@@H](C)CN3C(=O)[C@H]([C@H](O)CCN)NC2=O)ccc1O` [Example 2] it was below 0.15 µg/mL; in that of `COc1cc(C[C@@H](O)[C@@H]2NC(=O)[C@@H]3C[C@@H](O)CN3C(=O)[C@H]([C@@H](C)O)NC(=O)[C@@H](NCc3ccc(-c4nnc(-c5ccc(N6CCC(OC)(C7CCCCC7)CC6)cc5)s4)cc3)C[C@@H](O)CNC(=O)[C@@H]3[C@@H](O)[C@@H](C)CN3C(=O)[C@H]([C@H](O)CCNC(CO)CO)NC2=O)ccc1O` [Example 3], below 0.15 µg/mL; in that of `COc1cc(C[C@@H](O)[C@@H]2NC(=O)[C@@H]3C[C@@H](O)CN3C(=O)[C@H]([C@@H](C)O)NC(=O)[C@@H](NCc3ccc(-c4nnc(-c5ccc(N6CCN(C7CCCCC7)CC6)cc5)s4)cc3)C[C@@H](O)CNC(=O)[C@@H]3[C@@H](O)[C@@H](C)CN3C(=O)[C@H]([C@H](O)CCNC(CO)CO)NC2=O)ccc1O` [Example 4], below 0.15 µg/mL.

The values are drawn from US20050004014A1, “New compound” (FUJISAWA PHARMACEUTICAL CO., LTD., priority 2003, published 2005).
